Test results: publication PMC4303311 (Biochemistry, 2014)

Target: T1, bacteriorhodopsin (BR) (Halobacterium salinarum, UniProt P02945)
T1 sequence (P02945 14-262): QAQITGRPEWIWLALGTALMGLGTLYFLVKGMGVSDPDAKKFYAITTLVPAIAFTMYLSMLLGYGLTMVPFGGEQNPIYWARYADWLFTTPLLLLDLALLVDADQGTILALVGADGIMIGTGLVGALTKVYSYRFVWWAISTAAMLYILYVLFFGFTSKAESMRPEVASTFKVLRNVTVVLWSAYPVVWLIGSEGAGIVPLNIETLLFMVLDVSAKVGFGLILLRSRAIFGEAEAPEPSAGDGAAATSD
Test: low-temperature FTIR-difference spectroscopy
Assay type: binding
Conditions: covalent; protonated Schiff base; 80 K; native purple membrane

Q: Which “low-temperature FTIR-difference spectroscopy” value does the source give for `CC1=C(/C=C/C(C)=C/C=C/C(C)=C/C=O)C(C)(C)CCC1` [A1 retinal, all-trans-retinal] here?
A: Negative bands appear at similar frequencies in the FTIR-difference spectrum of CaChR1 and BR
